# Measured values: the NIST ThermoML archive (doi:10.1021/je200697m)
# ± gives the expanded uncertainty stated by the source.
# Conditions: Liquid
SMILES,vapor or sublimation pressure (363.41 K) [kPa],vapor or sublimation pressure (337.84 K) [kPa]
COC(=O)OC [dimethyl carbonate],101.32 ± 1.7,
CO [methanol],,101.32 ± 1.7
